*1 amine or outer side, *2 acyl side, *3 side chain or, on linkers, in order; H or OH if unused. Where a SMILES comes first, the peptide text is derived from it. Bridges are numbered along the chain shown (N, C = ends). Roman numbers before positions name the chains, in order. [ ]: non-standard residue; d: D form. Actinocin(9to1) = Cc1c2oc3c(C)ccc(C(=O)[*:1])c3nc-2c(C(=O)[*:2])c(N)c1=O; NMeV = CN[C@H](C(=O)O)C(C)C; Sar = CNCC(=O)O
Assays:
H2A.Z = test: ChIP-Seq with H2A.Z antibody, occupancy at TSSs; assay type: cell-based, human; conditions: for number of TSS with comparable (2-fold) decrease in total H2A.Z occupancy: HL-60, 2 hr treatment, vs cells without treatment, 38,512 TSS compared; for occupancy levels of unmodified H2A.Z at the TSS, genome-wide / H2A.Z peak intensity ratio, PU.1 locus (DMSO = 1) / H2A.Z peak intensity ratio, c-MYC locus (DMSO = 1): HL-60, 2 hr; for occupancy levels of unmodified H2A.Z at the TSS, genome-wide: vs mock-treated (DMSO), FIG. 4C; for H2A.Z peak intensity ratio, PU.1 locus (DMSO = 1) / H2A.Z peak intensity ratio, c-MYC locus (DMSO = 1): [DMSO/DRB/ActD]
Description: Two transcription inhibitors, Actinomycin D (ActD; RNA Polymerase I, II and III inhibitor) and 5,6-Dichlorobenzimidazole 1-β-D-ribofuranoside (DRB; RNAPII Inhibitor), were used at concentrations sufficient to block both RNA Polymerases II and III. Cells were synchronized with a double thymidine block and released into S Phase with ActD/DRB added. The rationale behind the use of ActD and DRB is: (i) to globally assess the effect of SPEARs suppression over a short time frame; (ii) to test effects resulting from the two different pathways triggered by ActD and DRB; and (iii) to take advantage of the reversibility of DRB treatment. […] Two hours after drug treatment, cells were crosslinked and subjected to ChIP-Seq analyses. […] Relative changes were then investigated in the footprints of unmodified H2A.Z and acH2A.Z in the vicinity of TSSs that result from DRB- and ActD-induced inhibition of SPEARs. The enrichments of ChIP-Seq signals for H2A.Z and acH2A.Z around 38,512 TSS (defined in the hg38 UCSC canonical gene table) following drug treatment were then compared with their occupancy in mock-treated (DMSO) cells. […] ActD-treated cells followed this pattern with a greater than 2-fold decrease in the levels of acH2A.Z at 6,283 TSS compared to untreated samples. […] For the c-MYC and PU1 loci, respectively, the ratios of control (DMSO) to drug treated H2A.Z peak intensities were: [DMSO/DRB/ActD]^c-MYC=1/0.76/0.67 and [DMSO/DRB/ActD]^PU.1=1/0.87/0.82; and the ratios of control (DMSO) to drug treated acH2A.Z peak intensities were: [DMSO/DRB/ActD]^c-MYC=1/0.62/0.36 and [DMSO/DRB/ActD]^PU.1=1.0/0.25/0.13. […] For MYB the ratios of control (DMSO) to drug treated acH2A.Z peak intensities are: [DMSO/DRB/ActD]^MYB=0.62/0.89/1.0, which corresponds to the increases in its SPEARs levels (FIG. 10C).
Double Thymidine block (early S-phase block) was carried out as described. Briefly, HL-60 cells were grown overnight to 70-80% confluence, washed twice with 1×PBS and cultured in DMEM (10% FCS)+2.5 mM Thymidine for 18 h (first block). Thymidine was washed out with 1×PBS and cells were grown in DMEM (10% FCS). After 8 hrs cells were cultured in the presence of thymidine for 18 h (second block) and then released as described. Synchrony was monitored by flow cytometry analysis of propidium iodide-stained cells using a LSRII flow cytometer (BD Biosciences) at the Harvard Stem Cell Institute/Beth Israel Deaconess Center flow cytometry facility.
DRB and Actinomycin D treatments were carried out as described. Briefly, after release from double thymidine block, HL-60 cells were treated with 100 μM of 5,6-Dichlorobenzimidazole 1-β-D-ribofuranoside (DRB) (Sigma Aldrich) or 0.8 μM of Actinomycin D (Sigma Aldrich) as indicated at each time point.
ChIP was performed as follows. Cells were crosslinked with 1% formaldehyde for 10 min at r.t. Pellets of 1×10^6 cells were used for immunoprecipitation and lysed for 10 minutes on ice and chromatin fragmented using a Branson 250 digital sonicator. Each ChIP was performed with 4 ug of antibody, incubated overnight at 4° C. A 50/50 slurry of protein A and protein G Dynabeads was used to capture enriched chromatin, which was then washed before reverse-crosslinking and proteinase K digestion at 65° C. AMPure XP beads were used to clean up and isolate ChIP DNA for subsequent library construction. The following antibodies were used for ChIP: H2A.Z (Abcam ab4174, lot GR3176820-1), acH2A.Z (Abcam ab18262, lot GR306397-1), TIP60 antibody; and IgG (Abcam ab171870). Fold enrichment was calculated using the formula 2^(−ΔΔCt(ChIP/non-immune serum)). Primer sets used for ChIP are listed in Table 2. nRIP was performed and crosslinked nuclei were collected as follows: 1. 60×10^6 HL-60 cells were crosslinked with 1% formaldehyde (formaldehyde solution, freshly made: 50 mM HEPES-KOH; 100 mM NaCl; 1 mM EDTA; 0.5 mM EGTA; 11% formaldehyde) for 10 min at room temperature. […]

MYB SPEARs = test: qRT-PCR of MYB SPEARs; assay type: cell-based, human; conditions: HL-60, DRB and ActD, FIG. 10C
Procedure: Total RNA isolation was carried out and all RNA samples used in this study were treated with DNase I (10 U of DNase I per 3 μg of total RNA; 37° C. for one hour; in the presence of RNase inhibitor). After DNase I treatment, RNA samples were extracted with acidic phenol (pH 4.3) to eliminate any remaining traces of DNA. cDNA syntheses were performed with Random Primers (Invitrogen) or gene-specific primers with Transcriptor Reverse Transcriptase (Roche Applied Science) according to the manufacturer's recommendation. cDNA was purified with a High Pure PCR Product Purification Kit (Roche Applied Science).
Sybr green reaction was performed using iQ Sybr Green supermix (Biorad, Hercules, CA) using the following parameters: 95° C. (10 min), 40 cycles of 95° C. (15 s) and 60° C. (1 min) 72° C. (1 min). TaqMan analysis was performed using Hotstart Probe One-step qRT-PCR master mix (USB) at the following conditions: 50° C. (10 min.), 95° C. (2 min.), and then 40 cycles of 95° C. (15 sec.) and 60° C. (60 sec.).

Row | SMILES | number of TSS with comparable (2-fold) decrease in total H2A.Z occupancy (H2A.Z) | occupancy levels of unmodified H2A.Z at the TSS, genome-wide (H2A.Z) | H2A.Z peak intensity ratio, PU.1 locus (DMSO = 1) (H2A.Z) | H2A.Z peak intensity ratio, c-MYC locus (DMSO = 1) (H2A.Z) | MYB SPEARs level upon transcription inhibitors (MYB SPEARs)
1 | Cc1c2oc3c(C)ccc(C(=O)N[C@@H]4C(=O)N[C@H](C(C)C)C(=O)N5CCC[C@H]5C(=O)N(C)CC(=O)N(C)[C@@H](C(C)C)C(=O)O[C@@H]4C)c3nc-2c(C(=O)N[C@@H]2C(=O)N[C@H](C(C)C)C(=O)N3CCC[C@H]3C(=O)N(C)CC(=O)N(C)[C@@H](C(C)C)C(=O)O[C@@H]2C)c(N)c1=O [ActD, Actinomycin D] (I: T[dV]P[Sar][NMeV] / II: T[dV]P[Sar][NMeV]; ester I:1-I:C, II:1-II:C; linker I:N-II:N via Actinocin(9to1)) | 650 TSS | only modest changes | 0.82 | 0.67 | positively affected
2 | OC[C@H]1O[C@@H](n2cnc3cc(Cl)c(Cl)cc32)[C@H](O)[C@@H]1O [DRB, 5,6-Dichlorobenzimidazole 1-β-D-ribofuranoside] | 398 TSS | only modest changes | 0.87 | 0.76 | positively affected

From US20240209456A1, “METHODS AND COMPOSITIONS RELATED TO CELL-CYCLE RNA's” (BETH ISRAEL DEACONESS MEDICAL CENTER, priority 2021, published 2024)
